pIC50: −log10 of the molar value.
Key:
LOK = molecular target: T1, LOK (Homo sapiens, UniProt O94804); assay: Kinase-tagged phage competition binding assay (qPCR), 382-kinase library
T1 construct: made in house; host or cells: E. coli BL21-derived host (T7 phage) or HEK-293

[1] = system: cardiac allograft rejection; assay: Cardiac allograft transplantation model, treatment day -1 to day 30 (Examples 7 and 8); assay type: in vivo, mice (C57BL/6 donor, Balb/c recipient); details: Example 7
Protocol: Inbreed C57BL/6 H-2b and Balb/c H-2d female mice, 8-10 weeks old, 20-25 g, were used as donor and recipient, respectively. Heterotopic heart transplantation was performed by implanting the donor heart on the neck of recipients using conventional microsurgery techniques. Graft beating was checked daily by inspection and palpation. Cessation of beating indicated graft rejection, which was confirmed by histological examination. Housing and all experimental animal procedures were approved by the Institutional Animal Care and Research Advisory Committee of the KU Leuven.

LOK (h) = molecular target: T2, LOK (h) (Homo sapiens, UniProt O94804); assay: Commercial kinase activity assay (Millipore, 33P-ATP filter); assay type: biochemical; details: 10 μM test compound
T2 construct: purchased Millipore
T2 sequence (O94804 whole entry): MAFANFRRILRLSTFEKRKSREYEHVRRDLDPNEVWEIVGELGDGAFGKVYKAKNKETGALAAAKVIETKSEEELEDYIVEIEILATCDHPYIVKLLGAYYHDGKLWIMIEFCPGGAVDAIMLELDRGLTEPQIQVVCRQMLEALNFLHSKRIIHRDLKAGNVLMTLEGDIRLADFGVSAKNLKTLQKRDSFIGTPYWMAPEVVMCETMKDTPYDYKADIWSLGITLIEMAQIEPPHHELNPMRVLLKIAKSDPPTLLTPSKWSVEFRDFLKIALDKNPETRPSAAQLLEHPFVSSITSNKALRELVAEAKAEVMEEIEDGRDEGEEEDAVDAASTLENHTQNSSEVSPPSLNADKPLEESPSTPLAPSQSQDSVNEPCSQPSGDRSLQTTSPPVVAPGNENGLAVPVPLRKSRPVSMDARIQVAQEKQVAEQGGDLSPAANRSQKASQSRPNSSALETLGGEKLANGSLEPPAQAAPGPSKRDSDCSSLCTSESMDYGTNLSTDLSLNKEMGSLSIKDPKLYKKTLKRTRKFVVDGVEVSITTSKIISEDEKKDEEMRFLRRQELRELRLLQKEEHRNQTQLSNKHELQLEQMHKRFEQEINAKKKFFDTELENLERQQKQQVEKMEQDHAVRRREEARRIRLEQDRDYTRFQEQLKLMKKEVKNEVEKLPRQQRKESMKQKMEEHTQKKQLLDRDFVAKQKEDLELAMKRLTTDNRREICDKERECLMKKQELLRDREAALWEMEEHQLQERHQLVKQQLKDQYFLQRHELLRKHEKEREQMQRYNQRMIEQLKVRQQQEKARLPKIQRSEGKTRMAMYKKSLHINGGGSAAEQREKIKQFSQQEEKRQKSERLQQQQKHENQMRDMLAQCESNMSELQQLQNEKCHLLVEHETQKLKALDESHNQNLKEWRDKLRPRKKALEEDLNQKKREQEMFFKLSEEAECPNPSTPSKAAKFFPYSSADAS
Protocol: LOK (h) was incubated with 8 mM MOPS pH 7.0, 0.2 mM EDTA, 250 μM […], 10 mM MgAcetate and [γ-^33P-ATP] (specific activity approx. 500 cpm/pmol, concentration as required). The reaction was initiated by the addition of the MgATP mix. After incubation for 40 minutes at room temperature, the reaction was stopped by the addition of 3% phosphoric acid solution. 10 μL of the reaction was then spotted onto a P30 filtermat and washed three times for 5 minutes in 75 mM phosphoric acid and once in methanol prior to drying and scintillation counting. PI3K p110β/p85α (h) PI3K (p110β/p85α) (h) was incubated in assay buffer containing 10 μM phosphatidylinositol-4,5-bisphosphate and MgATP (concentration as required). The reaction was initiated by the addition of the MgATP mix. After incubation for 30 minutes at room temperature, the reaction was stopped by the addition of stop solution containing EDTA and biotinylated phosphatidylinositol-3,4,5-trisphosphate. Finally, detection buffer was added, which contains europium-labelled anti-GST monoclonal antibody, GST-tagged GRP1 PH domain and streptavidinallophycocyanin. The plate was then read in time-resolved fluorescence mode and the homogenous time-resolved fluorescence (HTRF®) signal determined according to the formula HTRF=10000×(Em665nm/Em620 nm). YSK4 (h) YSK4 (h) was incubated with 8 mM MOPS pH 7.0, 0.2 mM EDTA, 250 […], 10 mM MgAcetate and [γ-^33P-ATP] (specific activity approx. 500 cpm/pmol, concentration as required). The reaction was initiated by the addition of the MgATP mix. After incubation for 40 minutes at room temperature, the reaction was stopped by the addition of 3% phosphoric acid solution. 10 μL of the reaction was then spotted onto a P30 filtermat and washed three times for 5 minutes in 75 mM phosphoric acid and once in methanol prior to drying and scintillation counting. PI4KA (PI4K alpha) The 2× PI4KA (PI4K alpha)/PI Lipid Kinase Substrate mixture was prepared in 20 mM Tris, pH 7.5, 0.4% Triton X-100, 5 mM MgCl2, 0.5 mM EGTA. The final 10 μL Kinase Reaction consisted of 75-300 ng PI4KA (PI4K alpha) and 100 μM PI Lipid Kinase Substrate in 7.5 mM HEPES, 10 mM Tris, pH 7.5, 0.2% Triton X-100, 2.5 mM MgCl2, 0.25 mM EGTA. After the 1 hour Kinase Reaction incubation, 5 μL of Detection Mix consisting of a europium labeled anti-ADP antibody, an Alexa Fluor® 647 labeled ADP tracer, and EDTA (to stop the kinase reaction) was added to the assay well. ADP formed by the kinase reaction (in the absence of an inhibitor) displaced the Alexa Fluor® 647 labeled ADP tracer from the antibody, resulting in a decrease in the TR-FRET signal. […] PI4KB (PI4K beta) The 2× PI4KB (PI4K beta)/PI Lipid Kinase Substrate mixture was prepared in 50 mM HEPES pH 7.5, 0.1% CHAPS, 1 mM EGTA, 4 mM MgCl2. […]

T1 sequence (O94804 whole entry): as above

**Q.** `Nc1nc(N2CCN(C(=O)COc3ccc(Cl)cc3)CC2)c2nc(-c3cccnc3)sc2n1` [formula (1), 5-amino-7-[4-(4-chlorophenoxyacetyl)piperazin-1-yl]-2-(pyridin-3-yl)thiazolo[5,4-d]pyrimidine] was tested. Which inhibition at 10 µM (LOK; 10 μM compound, read-out: % Inhibition of substrate binding) did it give?
**A.** 100%

**Q.** And the pIC50 (LOK; stated for the 8 kinases of Table 1)?
**A.** > 5.00

**Q.** What about the “grafts surviving as long as treatment continued” value ([1]; 40 mg/kg daily gavage) of the same compound?
**A.** 3 out of 4

**Q.** What about the “graft function after withdrawal of the treatment” value ([1]; 40 mg/kg daily gavage until day 30) of the same compound?
**A.** continued beating after withdrawal of the treatment (up to 60 days)

**Q.** And the Kinase activity (LOK (h))?
**A.** 117 percentage of control
